# Paper PMC12141164, “Phase-1 study of vamotinib (PF-114), a 3rd generation BCR::ABL1 tyrosine kinase-inhibitor, in chronic myeloid leukaemia” (Annals of Hematology, 2025)
# Where two headings read alike, the source gives them in different places.
# Legend:
# [1] = system: subjects with BCR::ABL1 positive CML; settings: for SAE: Upper respiratory tract infection: Relation to study drug No
# Description: Open-label phase-1 study at 3 clinical centers with dose-escalation using a 3 + 3 scheme with a starting dose of 50 mg/d given continuously. A 28-days of therapy was defined as a cycle. Dose escalation for the subsequent cohort depended on the results of the safety assessment of subjects in the preceding cohort during the 28 days of therapy. Once an MTD was identified expanded cohorts of 10–15 subjects were recruited at doses of interest below the MTD. A modified accelerated dose-escalation regimen was used up to a dose of 400 mg. Dose could be increased for subjects in whom the dose was reduced because of an adverse drug reaction (ADR). Severity of adverse events was assessed using NCI CTC AE v4 [28].
# The primary objective was to determine the MTD and DLT of vamotinib during the 1st cycle of therapy. Secondary objectives were to assess the safety and tolerability of vamotinib, determine pharmacokinetics and determine efficacy by response criteria according to 2013 ELN [29].
# Safety set consists of all patients, who at least once took the study drug.
# Population for DLT evaluation consists of all patients, who received sufficient amount of the study drug during Cycle 1 for adequate DLT assessment.
# The sufficient amount of the drug is determined as the intake of ≥ 75 % of the scheduled dose during Cycle 1, except for doses missed due to the DLT.
# EPHA7 = settings: kinase inhibition profiles; cited from earlier work
# TAK1 = settings: kinase inhibition profiles; cited from earlier work
# TIE2 = settings: kinase inhibition profiles; cited from earlier work
# VEGFR2 = settings: kinase inhibition profiles; cited from earlier work
# ZAK = settings: kinase inhibition profiles; cited from earlier work
# animals = settings: cited from earlier work
smiles,measurement,setting,value
Cc1ccc(C(=O)Nc2ccc(CN3CCN(C)CC3)c(C(F)(F)F)c2)cc1C#Cc1nnc2ccccn12 [vamotinib],SAE: Infections and infestations,[1]; Cohort 1 50 mg N=3,0 n (%)
same,SAE: Infections and infestations,[1]; Cohort 2 100 mg N=3,0 n (%)
same,SAE: Infections and infestations,[1]; Cohort 3 200 mg N=11,0 n (%)
same,SAE: Infections and infestations,[1]; Cohort 4 400 mg N=12,0 n (%)
same,SAE: Infections and infestations,[1]; Cohort 5 500 mg N=3,0 n (%)
same,SAE: Infections and infestations,[1]; Cohort 6 600 mg N=6,2 (33.3)/2 n (%)
same,SAE: Infections and infestations,[1]; Cohort 7 750 mg N=4,0 n (%)
same,SAE: Infections and infestations,[1]; Cohort 8 300 mg N=9,3 (33.3)/3 n (%)
same,SAE: Infections and infestations,[1]; Overall N=51,5 (9.8)/5 n (%)
same,SAE: Upper respiratory tract infection,[1]; Cohort 1 (50 mg) N=3,0 n (%)
same,SAE: Upper respiratory tract infection,[1]; Cohort 2 (100 mg) N=3,0 n (%)
same,SAE: Upper respiratory tract infection,[1]; Cohort 3 (200 mg) N=11,0 n (%)
same,SAE: Upper respiratory tract infection,[1]; Cohort 4 (400 mg) N=12,0 n (%)
same,SAE: Upper respiratory tract infection,[1]; Cohort 5 (500 mg) N=3,0 n (%)
same,SAE: Upper respiratory tract infection,[1]; Cohort 6 (600 mg) N=6,1 (16.7)/1 n (%)
same,SAE: Upper respiratory tract infection,[1]; Cohort 7 (750 mg) N=4,0 n (%)
same,SAE: Upper respiratory tract infection,[1]; Cohort 8 (300 mg) N=9,0 n (%)
same,SAE: Upper respiratory tract infection,[1]; Overall N=51,1 (2.0)/1 n (%)
same,Abdominal pain,"[1]; human, in vivo",2 (4) Number of subjects (percent)
same,Abdominal pain upper,"[1]; human, in vivo",4 (8) Number of subjects (percent)
same,Alanine aminotransferase increased,"[1]; human, in vivo",2 (4) Number of subjects (percent)
same,Anal fissure,"[1]; human, in vivo",2 (4) Number of subjects (percent)
same,Blood cholesterol increased,"[1]; human, in vivo",3 (6) Number of subjects (percent)
same,Discontinued: adverse event,"[1]; human, in vivo",6
same,Discontinued: intolerable adverse drug reaction in the opinion of the investigator,"[1]; human, in vivo",2
same,Dry skin,"[1]; human, in vivo",9 (18) Number of subjects (percent)
same,Dry skin and rash,"[1]; human, in vivo",8 subjects
same,"Dry skin, Grade 3","[1]; human, in vivo",0 n
same,"Dry skin, Total","[1]; human, in vivo",9 n
same,Dyspepsia,"[1]; human, in vivo",2 (4) Number of subjects (percent)
same,Erythema,"[1]; human, in vivo",4 (8) Number of subjects (percent)
same,"Erythema, Grade 3","[1]; human, in vivo",0 n
same,"Erythema, Total","[1]; human, in vivo",4 n
same,Eye disorders,"[1]; human, in vivo",3 (6) Number of subjects (percent)
same,Gastrointestinal disorders,"[1]; human, in vivo",17 (33) Number of subjects (percent)
same,Hepatitis toxic,"[1]; human, in vivo",1 (2) Number of subjects (percent)
same,Hepato-biliary disorders,"[1]; human, in vivo",1 (2) Number of subjects (percent)
same,Leukopenia,"[1]; human, in vivo",1 (2) Number of subjects (percent)
same,Low density lipoprotein increased,"[1]; human, in vivo",2 (4) Number of subjects (percent)
same,Nausea,"[1]; human, in vivo",6 (12) Number of subjects (percent)
same,"Pruritus, Grade 3","[1]; human, in vivo",1 n
same,"Pruritus, Total","[1]; human, in vivo",5 n
same,"Psoriasiform dermatitis, Grade 3","[1]; human, in vivo",4 n
same,"Psoriasiform dermatitis, Total","[1]; human, in vivo",19 n
same,Rash,"[1]; human, in vivo",32 subjects
same,Rash papular,"[1]; human, in vivo",2 (4) Number of subjects (percent)
same,"Rash papular, Grade 3","[1]; human, in vivo",0 n
same,"Rash papular, Total","[1]; human, in vivo",2 n
same,SAE: Acute sinusitis,"[1]; human, in vivo",1 (2.0)/1 n (%)
same,SAE: Appendicitis,"[1]; human, in vivo",1 (2.0)/1 n (%)
same,SAE: Atrial fibrillation,"[1]; human, in vivo",1 (2.0)/1 n (%)
same,SAE: Cardiac disorders,"[1]; human, in vivo",1 (2.0)/1 n (%)
same,SAE: Disease progression,"[1]; human, in vivo",1 (2.0)/1 n (%)
same,SAE: General disorders and administration site conditions,"[1]; human, in vivo",1 (2.0)/1 n (%)
same,SAE: Peritonitis,"[1]; human, in vivo",1 (2.0)/1 n (%)
same,SAE: Pneumonia,"[1]; human, in vivo",1 (2.0)/1 n (%)
same,"Toxic skin eruption, Grade 3","[1]; human, in vivo",7 n
same,"Toxic skin eruption, Total","[1]; human, in vivo",9 n
same,Transaminases increased,"[1]; human, in vivo",1 (2) Number of subjects (percent)
same,dose-reduction because of rash,"[1]; human, in vivo",9 n
same,study withdrawal because of rash,"[1]; human, in vivo",6 n
same,time after which skin lesions were resolved,"[1]; human, in vivo",4–6 months
same,time to resolution of skin toxicity after discontinuation of the drug,"[1]; human, in vivo",1–2 weeks
same,DLTs,"[1]; human, in vivo, 28 days",4
same,dose-limiting toxicity (DLT),"[1]; human, in vivo, 28 days",Grade-3 psoriasis-like skin toxicity
same,dose-limiting toxicity (DLT),[1]; in vivo,rash
same,inhibition of EPHA7,EPHA7,not
same,inhibition of TAK1,TAK1,not
same,inhibition of TIE2,TIE2,not
same,inhibition of VEGFR2,VEGFR2,not
same,inhibition of ZAK,ZAK,not
same,arterial occlusive events,animals; pre-clinical studies in animals,no arterial occlusive events
same,cardio-vascular findings,animals; pre-clinical toxicology studies,No cardio-vascular findings
